Results from publication PMC12369479 (Journal of Experimental Botany, 2025).

What was measured:
all three maize ADKs = assay: ADK activity, coupled reaction (summary for maize enzymes); assay type: biochemical, Zea mays; conditions: saturating 100 µM concentration
Protocol: (§1) Substrate analogs were purchased from Sigma-Aldrich (www.sigmaaldrich.com). The ADK activity was measured spectrophotometrically on an Agilent 8453 UV-Vis spectrophotometer (www.agilent.com) at 30 °C using a coupled reaction with pyruvate kinase (PK) and lactate dehydrogenase (LDH) (www.sigmaaldrich.com) ([Blondin et al., 1994]). In this assay, PK converts ADP produced by ADK and phosphoenolpyruvate (PEP) to pyruvate. Subsequently, LDH then converts pyruvate to lactate using the coenzyme NADH, with the conversion monitored at 340 nm. The reaction was conducted in 50 mM Tris–HCl buffer at pH 7.5, containing 50 mM KCl, 6 mM MgCl2, 300 µM PEP, 200 µM NADH, 10 mM ATP, 2 U of PK, and 2.5 U of LDH, using various nucleoside substrates. Kinetic constants were determined using GraphPad Prism 8.0 software (www.graphpad.com). Each measurement was performed six times using repetitive purified enzymes. The activities of all five ADKs were also measured by HPLC ([Moffatt et al., 1991]). The reaction mixture comprised 50 mM Tris–HCl pH 7.5, 5 mM MgCl2, 0.5 mM DTT, 30 mM NaF, 5 mM ATP, 40 µM substrate, and 2–150 ng of purified ADK, depending on the isoform. The reaction was incubated at 30 °C for up to 1 h. […]

PpADK1 = molecular target: T1, PpADK1 (Physcomitrium patens, UniProt O49923); assay: ADK activity, coupled reaction with PK and LDH; assay type: biochemical, Physcomitrella patens; conditions: 100 µM substrate, 10 mM ATP, pH 7.5, 30 °C
T1 construct: made in house; host or cells: E. coli T7 Express Iq
Protocol: (§2) Substrate analogs were purchased from Sigma-Aldrich (www.sigmaaldrich.com). The ADK activity was measured spectrophotometrically on an Agilent 8453 UV-Vis spectrophotometer (www.agilent.com) at 30 °C using a coupled reaction with pyruvate kinase (PK) and lactate dehydrogenase (LDH) (www.sigmaaldrich.com) ([Blondin et al., 1994]). In this assay, PK converts ADP produced by ADK and phosphoenolpyruvate (PEP) to pyruvate. Subsequently, LDH then converts pyruvate to lactate using the coenzyme NADH, with the conversion monitored at 340 nm. The reaction was conducted in 50 mM Tris–HCl buffer at pH 7.5, containing 50 mM KCl, 6 mM MgCl2, 300 µM PEP, 200 µM NADH, 10 mM ATP, 2 U of PK, and 2.5 U of LDH, using various nucleoside substrates. Kinetic constants were determined using GraphPad Prism 8.0 software (www.graphpad.com). Each measurement was performed six times using repetitive purified enzymes. The activities of all five ADKs were also measured by HPLC ([Moffatt et al., 1991]). The reaction mixture comprised 50 mM Tris–HCl pH 7.5, 5 mM MgCl2, 0.5 mM DTT, 30 mM NaF, 5 mM ATP, 40 µM substrate, and 2–150 ng of purified ADK, depending on the isoform. The reaction was incubated at 30 °C for up to 1 h. […] Similarly, the conversion of cytokinin ribosides to monophosphates was followed on a LiChrosphere 60 RP-Select B (5 µm) LiChroCART column 125-4 column equilibrated with 10 mM triethylamine at pH 5.4 plus 10% methanol, and stepwise eluted with 100% methanol.

rabbit ADK = system: rabbit ADK; design: method as in Miller et al., 1979a; conditions: ref Miller et al., 1979a; cited from earlier work
PpADK2 = PpADK2 (Physcomitrium patens, UniProt A9RF27); assay: ADK activity, coupled reaction with PK and LDH; conditions: 100 µM substrate, 10 mM ATP, pH 7.5, 30 °C
Protocol: as §2

ZmADK1 = ZmADK1 (Zea mays, UniProt K7UH13); assay: ADK activity, coupled reaction with PK and LDH; conditions: 100 µM substrate, 10 mM ATP, pH 7.5, 30 °C
Protocol: as §2

ZmADK3 E225A variant = ZmADK3 E225A variant (Zea mays, UniProt A0A1D6E5Z5, E225A); assay: Binding affinity by MST
Protocol: (§3) All ZmADK3 mutants were cloned by 30 cycle PCRs using tail-to-tail oriented phosphorylated primers, with the mutation being located at the 5′ end of one of the primers. The following mutants were cloned using the primers given in Supplementary Table S1: D19A, R132A, N222A, E225A, N295A, and D299A. The products were treated with DpnI restriction enzyme, gel purified, and ligated using T4 DNA ligase (www.thermofisher.com). Clones were transformed into T7 express I^qE. coli competent cells.
(§4) The microscale thermophoresis (MST) method was used to determine the binding affinity of various ribosides for ZmADK2 and PpADK1. Proteins were fluorescently labeled with RED-tris-NTA dye (www.nanotemper-technologies.com) using a 1:1 dye/protein molar ratio. The labeled protein was adjusted to 100–300 nM in 50 mM HEPES buffer pH 7.5, 1 mM MgCl2, and 0.2% Tween. Measurements were performed in premium capillaries on a Monolith NT.115 instrument at 30 °C with 5 s/30 s/5 s laser off/on/off times, respectively, with continuous sample fluorescence recording. Thermal stability was measured by nano-differential scanning fluorimetry on a Prometheus NT.48 instrument (www.nanotemper-technologies.com) in various buffers covering a pH (7.0–9.5) and temperature range (25–95 °C), with a heating rate of 1 °C min^–1, and using NT melting control software. Protein unfolding was measured by detecting the temperature-induced change in tryptophan fluorescence intensity at emission wavelengths of 330±5 nm and 350±5 nm. The melting temperature (Tm) was deduced from the maximum of the first derivative of the fluorescence ratios F350/F330.

ZmADK3 N295A variant = ZmADK3 N295A variant (Zea mays, UniProt A0A1D6E5Z5, N295A); assay: Binding affinity by MST
Protocol: as §3, §4

ZmADK3 N222A variant = ZmADK3 N222A variant (Zea mays, UniProt A0A1D6E5Z5, N222A); assay: Binding affinity by MST
Protocol: as §3, §4

ZmADK3 D19A variant = ZmADK3 D19A variant (Zea mays, UniProt A0A1D6E5Z5, D19A); assay: Binding affinity by MST
Protocol: as §3, §4

ZmADK3 R132A variant = ZmADK3 R132A variant (Zea mays, UniProt A0A1D6E5Z5, R132A); assay: Binding affinity by MST
Protocol: as §3, §4

ZmADK3 D299A variant = ZmADK3 D299A variant (Zea mays, UniProt A0A1D6E5Z5, D299A); assay: Binding affinity by MST
Protocol: as §3, §4

WT ZmADK3 = WT ZmADK3 (Zea mays, UniProt A0A1D6E5Z5); assay: Binding affinity by MST
both moss enzymes = assay: ADK activity, coupled reaction (summary for moss enzymes); assay type: biochemical, Physcomitrella patens; conditions: saturating 100 µM concentration
Protocol: as §1

Chain of ZmADK3 D299A variant (A0A1D6E5Z5 entry or part of it D299A): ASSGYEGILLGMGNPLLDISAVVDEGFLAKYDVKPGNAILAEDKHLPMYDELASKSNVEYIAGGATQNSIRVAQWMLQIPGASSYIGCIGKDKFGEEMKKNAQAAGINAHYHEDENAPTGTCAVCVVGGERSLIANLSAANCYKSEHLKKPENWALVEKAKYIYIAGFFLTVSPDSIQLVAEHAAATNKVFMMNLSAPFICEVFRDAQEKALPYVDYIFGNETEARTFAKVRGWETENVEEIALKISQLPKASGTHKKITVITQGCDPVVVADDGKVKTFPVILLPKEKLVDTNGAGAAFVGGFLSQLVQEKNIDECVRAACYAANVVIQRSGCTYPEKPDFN
Chain of ZmADK3 N222A variant (A0A1D6E5Z5 entry or part of it N222A): as the sequence (A0A1D6E5Z5 entry or part of it D299A) above, with N221A, A298D counted along it
Chain of ZmADK3 D19A variant (A0A1D6E5Z5 entry or part of it D19A): as the sequence (A0A1D6E5Z5 entry or part of it D299A) above, with D18A, A298D counted along it
Chain of ZmADK3 N295A variant (A0A1D6E5Z5 entry or part of it N295A): as the sequence (A0A1D6E5Z5 entry or part of it D299A) above, with N294A, A298D counted along it
Chain of ZmADK3 R132A variant (A0A1D6E5Z5 entry or part of it R132A): as the sequence (A0A1D6E5Z5 entry or part of it D299A) above, with R131A, A298D counted along it
Chain of PpADK2 (A9RF27 entry or part of it): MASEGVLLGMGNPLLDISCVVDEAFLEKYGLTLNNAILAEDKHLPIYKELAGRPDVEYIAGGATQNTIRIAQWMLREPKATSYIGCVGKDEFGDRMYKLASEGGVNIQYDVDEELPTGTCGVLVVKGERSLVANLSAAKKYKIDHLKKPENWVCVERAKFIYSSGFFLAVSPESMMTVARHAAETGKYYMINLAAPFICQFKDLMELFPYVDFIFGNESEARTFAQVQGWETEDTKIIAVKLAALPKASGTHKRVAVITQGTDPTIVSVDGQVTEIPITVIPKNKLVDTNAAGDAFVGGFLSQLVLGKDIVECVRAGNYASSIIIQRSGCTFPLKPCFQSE
Chain of ZmADK3 E225A variant (A0A1D6E5Z5 entry or part of it E225A): as the sequence (A0A1D6E5Z5 entry or part of it D299A) above, with E224A, A298D counted along it
T1 sequence (O49923 whole entry): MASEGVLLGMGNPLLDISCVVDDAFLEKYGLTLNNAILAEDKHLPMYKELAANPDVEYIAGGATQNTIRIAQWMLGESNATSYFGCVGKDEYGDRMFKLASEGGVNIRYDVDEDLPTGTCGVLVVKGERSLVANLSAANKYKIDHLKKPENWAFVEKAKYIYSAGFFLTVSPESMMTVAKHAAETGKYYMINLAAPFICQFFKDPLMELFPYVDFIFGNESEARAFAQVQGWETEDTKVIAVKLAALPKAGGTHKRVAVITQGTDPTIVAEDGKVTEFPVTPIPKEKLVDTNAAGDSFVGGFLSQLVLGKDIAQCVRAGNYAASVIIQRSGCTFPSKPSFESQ
Chain of WT ZmADK3 (A0A1D6E5Z5 2-344): as the sequence (A0A1D6E5Z5 entry or part of it D299A) above, with A298D counted along it
Chain of ZmADK1 (K7UH13 entry or part of it): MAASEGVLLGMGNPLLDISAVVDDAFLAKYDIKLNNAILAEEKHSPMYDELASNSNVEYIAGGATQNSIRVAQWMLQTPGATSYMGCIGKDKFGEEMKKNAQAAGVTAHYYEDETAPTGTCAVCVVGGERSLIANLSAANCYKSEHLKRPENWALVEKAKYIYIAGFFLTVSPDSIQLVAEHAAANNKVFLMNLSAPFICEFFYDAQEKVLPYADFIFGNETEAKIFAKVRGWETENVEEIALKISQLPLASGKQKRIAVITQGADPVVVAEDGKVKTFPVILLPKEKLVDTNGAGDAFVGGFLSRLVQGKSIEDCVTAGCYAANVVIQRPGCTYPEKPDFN

Compound: Nc1ncnc2c1ncn2[C@@H]1O[C@H](CO)[C@@H](O)[C@H]1O [Ado, adenosine]
- activity (all three maize ADKs): 30–40 nkat mg^–1
- Specific activity (PpADK1): 5.09±0.26 nmol s^–1 mg^–1
- Km (rabbit ADK): 0.4 µM
- Specific activity (PpADK2): 4.70±0.05 nmol s^–1 mg^–1
- Specific activity (ZmADK1): 30.5±0.4 nmol s^–1 mg^–1
- Kd (ZmADK3 E225A variant): 320 ± 90 nM
- Kd (ZmADK3 N295A variant): 274000 ± 10000 nM
- Kd (ZmADK3 N222A variant): 300 ± 130 nM
- Kd (ZmADK3 D19A variant): 989000 ± 161000 nM
- Kd (ZmADK3 R132A variant): 270 ± 40 nM
- Kd (ZmADK3 D299A variant): 10300 ± 4100 nM
- lower affinity for Ado than the WT (ZmADK3 D299A variant; D299A variant of ZmADK3): ~ 37 times
- Kd (WT ZmADK3): 280 ± 50 nM
- activity (both moss enzymes): 4–5 nkat mg^–1
